# Reference: EPA's ToxRefDB 2
# Key:
# rat [1] = conditions: Prenatal developmental toxicity study, sprague dawley, Oral, Gavage/Intubation, dose end: 17 GD
# dog [2] = conditions: Sub-acute repeat dose toxicity, beagle, Oral, Gavage/Intubation, dose end: 1 month, group: systemic
# rat [3] = conditions: Sub-acute repeat dose toxicity, sprague dawley, Oral, Gavage/Intubation, dose end: 1 month, group: systemic
# rabbit [4] = conditions: Prenatal developmental toxicity study; new zealand white; Oral; Gavage/Intubation; dose end: 19 GD; group: maternal; reproductive / reproductive performance / postimplantation loss / postimplantation loss + reproductive / reproductive performance / …
# dog [5] = conditions: Chronic toxicity, beagle, Oral, Gavage/Intubation, dose end: 6 month, group: systemic
# rat [6] = conditions: Chronic toxicity, sprague dawley, Oral, Gavage/Intubation, dose end: 6 month, group: systemic
# rat [7] = conditions: Fertility (Segment I), sprague dawley, Oral, Gavage/Intubation, dose end: 7 GD
# rat [8] = conditions: Prenatal developmental toxicity study, sprague dawley, Oral, Gavage/Intubation, dose end: 17 GD, group: maternal
# rabbit [9] = conditions: Prenatal developmental toxicity study; new zealand white; Oral; Gavage/Intubation; dose end: 19 GD; group: maternal; reproductive / reproductive performance / resorptions / resorptions + systemic / in life observation / body weight / body weight gain + …
# rat [10] = conditions: Prenatal developmental toxicity study, sprague dawley, Oral, Gavage/Intubation, dose end: 17 GD; remark: listed apart in the source
# rat [11] = conditions: Fertility (Segment I), sprague dawley, Oral, Gavage/Intubation, dose end: 7 GD; remark: listed apart in the source
# [12] = group: developmental, systemic / in life observation / body weight / fetal weight
# [13] = group: maternal, reproductive / reproductive performance / aborted / aborted + reproductive / reproductive performance / gestation index / gestation index + …
# [14] = systemic / clinical chemistry / alanine aminotransferase (alt/sgpt) / alanine aminotransferase (alt/sgpt) + systemic / clinical chemistry / …
# [15] = systemic / hematology / erythrocyte (rbc) count differential / erythrocyte (rbc) + systemic / hematology / hematocrit (hct) / hematocrit (…
# [16] = systemic / in life observation / body weight / body weight + systemic / organ weight / thymus / absolute + systemic / organ weight / thymus…
# [17] = systemic / pathology gross / uterus / dilatation
# [18] = systemic / pathology microscopic / parathyroid gland / adenoma + systemic / clinical chemistry / alanine aminotransferase (alt/sgpt) / …
# [19] = group: maternal, reproductive / reproductive performance / estrous cycle / corpora lutea + reproductive / reproductive performance / implantations / …
# [20] = group: parental, systemic / in life observation / body weight / body weight gain + systemic / in life observation / food consumption / food consumption
# [21] = systemic / in life observation / body weight / body weight gain + systemic / in life observation / food consumption / food consumption
# [22] = systemic / in life observation / body weight / body weight gain + systemic / in life observation / food consumption / food consumption + …
# [23] = group: maternal, reproductive / reproductive performance / aborted / aborted + reproductive / reproductive performance / postimplantation loss / …
# [24] = group: maternal, reproductive / reproductive performance / estrous cycle / abnormal + reproductive / reproductive performance / estrous cycle / corpora lutea…
# [25] = group: parental, systemic / in life observation / body weight / body weight + systemic / in life observation / body weight / body weight gain + systemic / in…
compound,measurement,setting,value
CN(C)C(=O)NC1(c2ccccc2)CCN(CCC[C@]2(c3ccc(Cl)c(Cl)c3)CCCN(C(=O)c3ccccc3)C2)CC1,LEL,rat [1]; [12],200 mg/kg/day
same,LOAEL,rat [1]; [12],> 200 mg/kg/day
same,NEL,rat [1]; [12],75 mg/kg/day
same,NOAEL,rat [1]; [12],≥ 200 mg/kg/day
same,LEL,rat [1]; [13],200 mg/kg/day
same,LOAEL,rat [1]; [13],200 mg/kg/day
same,NEL,rat [1]; [13],75 mg/kg/day
same,NOAEL,rat [1]; [13],75 mg/kg/day
same,LOAEL,dog [2]; [14],> 360 mg/kg/day
same,NOAEL,dog [2]; [14],≥ 360 mg/kg/day
same,LEL,dog [2]; [15],40 mg/kg/day
same,NEL,dog [2]; [15],< 40 mg/kg/day
same,LOAEL,rat [3]; [14],> 250 mg/kg/day
same,NEL,rat [3]; [14],25 mg/kg/day
same,NOAEL,rat [3]; [14],≥ 250 mg/kg/day
same,LEL,rat [3]; systemic / pathology gross / mammary gland / [other],75 mg/kg/day
same,LEL,rabbit [4],50 mg/kg/day
same,LOAEL,rabbit [4],> 100 mg/kg/day
same,NEL,rabbit [4],< 50 mg/kg/day
same,NOAEL,rabbit [4],≥ 100 mg/kg/day
same,LOAEL,dog [5]; [14],> 90 mg/kg/day
same,NOAEL,dog [5]; [14],≥ 90 mg/kg/day
same,LEL,dog [5]; [16],10 mg/kg/day
same,NEL,dog [5]; [16],< 10 mg/kg/day
same,LEL,rat [6]; [17],25 mg/kg/day
same,NEL,rat [6]; [17],< 25 mg/kg/day
same,LOAEL,rat [6]; [18],> 250 mg/kg/day
same,NOAEL,rat [6]; [18],≥ 250 mg/kg/day
same,LEL,rat [7]; [19],150 mg/kg/day
same,LOAEL,rat [7]; [19],> 150 mg/kg/day
same,NEL,rat [7]; [19],75 mg/kg/day
same,NOAEL,rat [7]; [19],≥ 150 mg/kg/day
same,LEL,rat [7]; [20],150 mg/kg/day
same,LOAEL,rat [7]; [20],> 150 mg/kg/day
same,NEL,rat [7]; [20],75 mg/kg/day
same,NOAEL,rat [7]; [20],≥ 150 mg/kg/day
same,LEL,rat [8]; [21],100 mg/kg/day
same,LOAEL,rat [8]; [21],100 mg/kg/day
same,NEL,rat [8]; [22],50 mg/kg/day
same,NOAEL,rat [8]; [22],50 mg/kg/day
same,LEL,rabbit [9],75 mg/kg/day
same,LOAEL,rabbit [9],> 75 mg/kg/day
same,NEL,rabbit [9],25 mg/kg/day
same,NOAEL,rabbit [9],≥ 75 mg/kg/day
same,LEL,rat [10]; [12],250 mg/kg/day
same,LOAEL,rat [10]; [12],> 250 mg/kg/day
same,NEL,rat [10]; [12],< 250 mg/kg/day
same,NOAEL,rat [10]; [12],≥ 250 mg/kg/day
same,LEL,rat [10]; [23],250 mg/kg/day
same,LOAEL,rat [10]; [23],> 250 mg/kg/day
same,NEL,rat [10]; [23],< 250 mg/kg/day
same,NOAEL,rat [10]; [23],≥ 250 mg/kg/day
same,LOAEL,rat [11]; [24],> 250 mg/kg/day
same,NEL,rat [11]; [24],75 mg/kg/day
same,NOAEL,rat [11]; [24],≥ 250 mg/kg/day
same,LEL,rat [11]; [19],150 mg/kg/day
same,LOAEL,rat [11]; [25],> 250 mg/kg/day
same,NOAEL,rat [11]; [25],≥ 250 mg/kg/day
same,LEL,rat [11]; [20],75 mg/kg/day
same,NEL,rat [11]; [20],< 75 mg/kg/day
